Measured values as given in ChEMBL document CHEMBL1128542, “Synthesis and antiviral activity of benzyl-substituted imidazo [1,5-a]-1,3,5-triazine (5,8-diaza-7,9-dideazapurine) derivatives” (J Med Chem, 1995).

How the values were obtained:
[1] = Minimum toxic concentration required to cause a microscopically detectable alteration of normal HeLa cell morphology; assay type: toxicity, cell-based; settings: human, HeLa cells; read-out: MTC
[2] = Minimum toxic concentration required to cause a microscopically detectable alteration of normal MDCK cell morphology; assay type: toxicity, cell-based, Canis lupus familiaris; settings: dog, MDCK cells; read-out: MTC
CCRF-CEM = assay: Cytotoxic concentration required to inhibit CEM cell proliferation by 50%.; assay type: functional; settings: Homo sapiens
Vero = assay: Inhibitory concentration against parainfluenza-3 virus in vero cells; assay type: functional, cell-based; settings: Chlorocebus sabaeus
MDCK [3] = assay: Inhibitory concentration against influenza virus A in MDCK cells; assay type: functional, cell-based; settings: Canis lupus familiaris
MDCK [4] = assay: Inhibitory concentration against influenza virus B in MDCK cells; assay type: functional, cell-based; settings: Canis lupus familiaris
HeLa = assay: Inhibitory concentration against respiratory syncytial virus in HeLa cells; assay type: functional, cell-based; settings: Homo sapiens
[5] = Minimum toxic concentration required to cause a microscopically detectable alteration of normal vero cell morphology; assay type: toxicity, cell-based; settings: chlorocebus sabaeus, Vero cells; read-out: MTC
[6] = tested on: Human immunodeficiency virus 1; assay: Inhibitory concentration against HIV-1 replication; assay type: functional, organism-based
[7] = tested on: Human immunodeficiency virus 2; assay: Inhibitory concentration against HIV-2 replication; assay type: functional, organism-based

Cc1ccc(CSc2ncnc3c(Cc4ccc(C)cc4)ncn23)cc1
MCC [1]: 278 µM | MCC [2]: 278 µM | CC50 (CCRF-CEM): > 111 µM | IC50 (Vero): > 278 µM | IC50 (MDCK [3]): > 278 µM | IC50 (MDCK [4]): > 278 µM | IC50 (HeLa): > 278 µM | MCC [5]: 278 µM

O=c1[nH]c(=S)[nH]c2c(CCCCCOCc3ccccc3)ncn12
MCC [1]: 87.2 µM | MCC [2]: 291 µM | CC50 (CCRF-CEM): 259 µM | IC50 (MDCK [3]): 174 µM | IC50 (MDCK [4]): > 291 µM | IC50 (HeLa): 23.2 µM

Cc1ncn2c(S)ncnc12
MCC [1]: 602 µM | MCC [2]: 602 µM | CC50 (CCRF-CEM): 789 µM | IC50 (Vero): > 602 µM | IC50 (MDCK [3]): 181 µM | IC50 (MDCK [4]): 241 µM | IC50 (HeLa): > 602 µM | MCC [5]: 602 µM

Cc1nc(C)n2c(S)ncnc12
MCC [1]: 556 µM | MCC [2]: > 1110 µM | CC50 (CCRF-CEM): > 694 µM | IC50 (Vero): > 556 µM | IC50 (MDCK [3]): 222 µM | IC50 (MDCK [4]): 833 µM | IC50 (HeLa): > 556 µM | MCC [5]: 556 µM

Cc1nc(C)n2c1NC=NC2N (centres undefined)
MCC [1]: > 1100 µM | MCC [2]: > 1100 µM | CC50 (CCRF-CEM): 115 µM | IC50 (Vero): > 1100 µM | IC50 (MDCK [3]): > 1100 µM | IC50 (MDCK [4]): > 1100 µM | IC50 (HeLa): > 1100 µM | MCC [5]: > 1100 µM

Cc1ccc(Cc2ncn3c(=O)[nH]c(=S)[nH]c23)cc1
MCC [1]: > 735 µM | MCC [2]: > 735 µM | CC50 (CCRF-CEM): > 735 µM | IC50 (Vero): > 735 µM | IC50 (MDCK [3]): 54.4 µM | IC50 (MDCK [4]): > 551 µM | IC50 (HeLa): 257 µM | MCC [5]: > 735 µM

Cc1ncn2c1NC=NC2N (centres undefined)
MCC [1]: > 1340 µM | MCC [2]: > 1340 µM | CC50 (CCRF-CEM): 746 µM | IC50 (Vero): > 671 µM | IC50 (MDCK [3]): > 1340 µM | IC50 (MDCK [4]): > 1340 µM | IC50 (HeLa): > 1340 µM | MCC [5]: 671 µM

Cc1ccc(CSC2NC(=O)n3c(C)nc(C)c3N2)cc1 (centres undefined)
MCC [1]: 328 µM | MCC [2]: 328 µM | CC50 (CCRF-CEM): 88.8 µM | IC50 (Vero): > 131 µM | IC50 (MDCK [3]): 65.6 µM | IC50 (MDCK [4]): > 328 µM | IC50 (HeLa): 15.7 µM | MCC [5]: 328 µM

Cc1ccc(Cc2ncn3c(O)ncnc23)cc1
MCC [1]: > 833 µM | MCC [2]: > 833 µM | CC50 (CCRF-CEM): > 833 µM | IC50 (Vero): > 833 µM | IC50 (MDCK [3]): > 833 µM | IC50 (MDCK [4]): > 833 µM | IC50 (HeLa): > 833 µM | MCC [5]: 625 µM

CN(C)c1ncnc2c(Cc3ccccc3)ncn12
MCC [1]: > 790 µM | MCC [2]: > 790 µM | CC50 (CCRF-CEM): > 790 µM | IC50 (Vero): > 790 µM | IC50 (MDCK [3]): > 790 µM | IC50 (MDCK [4]): > 790 µM | IC50 (HeLa): 395 µM | MCC [5]: > 790 µM

CSC1N=CNc2c(C)nc(C)n21 (centres undefined)
MCC [1]: 515 µM | MCC [2]: 515 µM | CC50 (CCRF-CEM): 440 µM | IC50 (Vero): > 515 µM | IC50 (MDCK [3]): 103 µM | IC50 (MDCK [4]): 103 µM | IC50 (HeLa): > 515 µM | MCC [5]: 515 µM

Cc1ccc(Cc2ncn3c(N(C)C)ncnc23)cc1
MCC [1]: > 749 µM | MCC [2]: > 749 µM | CC50 (CCRF-CEM): 412 µM | IC50 (Vero): > 374 µM | IC50 (MDCK [3]): > 749 µM | IC50 (MDCK [4]): > 749 µM | IC50 (HeLa): > 749 µM | MCC [5]: 374 µM

O=c1[nH]c(=S)[nH]c2c(Cc3ccccc3)ncn12
MCC [1]: > 775 µM | MCC [2]: > 775 µM | CC50 (CCRF-CEM): 430 µM | IC50 (Vero): > 775 µM | IC50 (MDCK [3]): 54.2 µM | IC50 (MDCK [4]): > 581 µM | IC50 (HeLa): > 775 µM | MCC [5]: 581 µM

CSC1NC(=O)n2cnc(CCCCCOCc3ccccc3)c2N1 (centres undefined)
MCC [1]: 11.1 µM | MCC [2]: 55.8 µM | CC50 (CCRF-CEM): > 120 µM | IC50 (Vero): > 27.9 µM | IC50 (MDCK [3]): 11.1 µM | IC50 (MDCK [4]): 55.8 µM | IC50 (HeLa): 2.2 µM | MCC [5]: > 112 µM

Sc1ncnc2c(Cc3ccccc3)ncn12
MCC [1]: 16.5 µM | MCC [2]: 16.5 µM | IC50 [6]: 20.6 µM | CC50 (CCRF-CEM): 35.1 µM | IC50 (Vero): 33 µM | IC50 [7]: 17.7 µM | IC50 (MDCK [3]): 4.9 µM | IC50 (MDCK [4]): 3.3 µM | IC50 (HeLa): 3.3 µM | MCC [5]: 24.7 µM

Cc1ncn2c(=O)[nH]c(=S)[nH]c12
MCC [1]: 549 µM | MCC [2]: > 1100 µM | CC50 (CCRF-CEM): 786 µM | IC50 (Vero): > 1100 µM | IC50 (MDCK [3]): > 1100 µM | IC50 (MDCK [4]): > 1100 µM | IC50 (HeLa): > 550 µM | MCC [5]: 1100 µM

CSC1N=CNc2c(C)ncn21 (centres undefined)
MCC [1]: 556 µM | MCC [2]: 111 µM | CC50 (CCRF-CEM): 176 µM | IC50 (Vero): > 222 µM | IC50 (MDCK [3]): 22.2 µM | IC50 (MDCK [4]): 22.2 µM | IC50 (HeLa): 111 µM | MCC [5]: 111 µM

CSc1ncnc2c(Cc3ccc(C)cc3)ncn12
MCC [1]: 74 µM | MCC [2]: 74 µM | CC50 (CCRF-CEM): 389 µM | IC50 (Vero): > 148 µM | IC50 (MDCK [3]): 14.8 µM | IC50 (MDCK [4]): 74 µM | IC50 (HeLa): 22.2 µM | MCC [5]: > 370 µM

Cc1nc(C)n2c(=O)[nH]c(=S)[nH]c12
MCC [1]: 510 µM | MCC [2]: > 1020 µM | CC50 (CCRF-CEM): 526 µM | IC50 (Vero): > 1020 µM | IC50 (MDCK [3]): 510 µM | IC50 (MDCK [4]): > 1020 µM | IC50 (HeLa): > 510 µM | MCC [5]: 1020 µM

Cc1ccc(CSC2NC(=O)n3cnc(CCCCCOCc4ccccc4)c3N2)cc1 (centres undefined)
MCC [1]: 44.6 µM | MCC [2]: 223 µM | CC50 (CCRF-CEM): 343 µM | IC50 (Vero): > 22.3 µM | IC50 (MDCK [3]): 5.3 µM | IC50 (MDCK [4]): 223 µM | IC50 (HeLa): 2.6 µM | MCC [5]: > 89.2 µM

Cc1ccc(CSC2NC(=O)n3cnc(Cc4ccc(C)cc4)c3N2)cc1 (centres undefined)
MCC [1]: 10.3 µM | MCC [2]: 260 µM | CC50 (CCRF-CEM): 44.6 µM | IC50 (Vero): > 104 µM | IC50 (MDCK [3]): 4.1 µM | IC50 (MDCK [4]): 51.9 µM | IC50 (HeLa): 1.4 µM | MCC [5]: > 260 µM

Cc1nc(C)n2c1NC(SCc1ccccc1)NC2=O (centres undefined)
MCC [1]: > 524 µM | MCC [2]: > 699 µM | CC50 (CCRF-CEM): 266 µM | IC50 (Vero): > 140 µM | IC50 (MDCK [3]): 69.9 µM | IC50 (MDCK [4]): 699 µM | IC50 (HeLa): 20.9 µM | MCC [5]: > 350 µM

Cc1ccc(Cc2ncn3c(S)ncnc23)cc1
MCC [1]: 6.2 µM | MCC [2]: 3.1 µM | CC50 (CCRF-CEM): 32.8 µM | IC50 (Vero): 6.2 µM | IC50 (MDCK [3]): 2.7 µM | IC50 (MDCK [4]): 0.6 µM | IC50 (HeLa): 0.6 µM | MCC [5]: 4.6 µM

Cc1nc(Cc2ccccc2)c2ncnc(O)n12
MCC [1]: 417 µM | MCC [2]: > 833 µM | CC50 (CCRF-CEM): 262 µM | IC50 (Vero): > 417 µM | IC50 (MDCK [3]): 625 µM | IC50 (MDCK [4]): > 833 µM | IC50 (HeLa): > 417 µM | MCC [5]: 417 µM

Oc1ncnc2c(Cc3ccccc3)ncn12
MCC [1]: > 885 µM | MCC [2]: > 885 µM | CC50 (CCRF-CEM): 633 µM | IC50 (Vero): > 885 µM | IC50 (MDCK [3]): > 885 µM | IC50 (MDCK [4]): > 885 µM | IC50 (HeLa): 664 µM | MCC [5]: > 885 µM

CSC1NC(=O)n2cnc(Cc3ccc(C)cc3)c2N1 (centres undefined)
MCC [1]: 20.3 µM | MCC [2]: 67.7 µM | CC50 (CCRF-CEM): 75.3 µM | IC50 (Vero): 136 µM | IC50 (MDCK [3]): 27.1 µM | IC50 (MDCK [4]): 67.7 µM | IC50 (HeLa): 4 µM | MCC [5]: > 339 µM

NC12CC3CC(CC(C3)C1)C2 [AMANTADINE]
MCC [1]: 661 µM | MCC [2]: > 661 µM | IC50 (MDCK [3]): 661 µM | IC50 (MDCK [4]): > 1320 µM | IC50 (HeLa): > 661 µM

NC(=O)c1ncn([C@@H]2O[C@H](CO)[C@@H](O)[C@H]2O)n1 [RIBAVIRIN]
MCC [1]: > 820 µM | MCC [2]: > 820 µM | IC50 (Vero): 287 µM | IC50 (MDCK [3]): 4.9 µM | IC50 (HeLa): 11.4 µM | MCC [5]: > 1640 µM
